21 compounds from US20180092908A1, “SMALL MOLECULE OXIDIZERS OF PDI AND THEIR USE” (THE TRUSTEES OF COLUMBIA UNIVERSITY IN THE CITY OF NEW YORK, priority 2015, published 2018) can be followed below.

Values after ≈ are worked out from the molar mass of the structure shown. Where two headings read alike, the source gives them in different places.

In data set [1] the target is T1, recombinant catalytic a domain of human PDI A1 (PDIa) (Homo sapiens, UniProt P07237).
T1 construct: made in house; host or cells: Escherichia coli BL21-Gold (DE3)
T1 sequence (P07237 with tags, fused parts or gaps): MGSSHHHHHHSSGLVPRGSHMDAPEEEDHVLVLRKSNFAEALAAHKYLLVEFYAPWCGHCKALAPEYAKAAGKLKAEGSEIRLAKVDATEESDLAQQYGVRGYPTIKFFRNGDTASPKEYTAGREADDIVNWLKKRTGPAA
Nature of the data set: Insulin aggregation assay (PDIa reductase activity). The settings on record: Table 5. Format: biochemical. An excerpt:
In this insulin aggregation assay (Xu et al., 2012; Jasuja et al., 2012; Khan et al., 2011; Smith et al., 2004), PDIa reduced the two disulfide bonds between the α- and β-chains of insulin, causing the β-chain to aggregate and precipitate, resulting in an increase in absorbance at 650 nm.
To investigate the mode of binding further and to determine whether the binding was reversible or irreversible, the recovery of enzymatic activity of PDIa after dilution of pre-formed concentrated PDIa-LOC14 complexes was analyzed. LOC14 (750 μM) was incubated with a concentrated solution of PDIa (500 μM). The mixture was then diluted 100-fold and PDI's enzymatic activity was measured in the insulin reduction assay. As a control, the same procedure was also performed on the sample containing an irreversible inhibitor, 16F16 (16F16 at 750 μM and PDIa at 500 μM). […] This illustrated that unlike 16F16, LOC14 binding to PDIa is reversible.

Data set [2] is described as follows: Solubility. The settings on record: DMSO, Table 5.
The target of data set [3] is T2, human catalytic PDI A1 a domain (PDIa) (Homo sapiens, UniProt P07237).
T2 construct: made in house; host or cells: Escherichia coli BL21-Gold (DE3)
T2 sequence (P07237 with tags, fused parts or gaps): as above
Description: Isothermal titration calorimetry (ITC) binding to PDIa. The settings on record: PDIa. How it is done: All ITC experiments were carried out at 25° C. on MicoCal Auto-ITC200 system (GE Healthcare). Reduced PDIa was dialyzed into ITC buffer (20 mM sodium phosphate buffer pH 7.8) and loaded into a sample cell at 40 μM concentration. The compound solution was loaded into a syringe at 400 μM in the same ITC buffer with a final DMSO concentration at 0.4% (v/v). ITC titration experiments were carried out at 25° C. with 19 injections, 2 μl per injection, and 180 seconds between each injection. The reference cell power was set to 5 μcal/sec. A control experiment was performed for each compound, where each compound was titrated into buffer to account for heat released due to dilution. This background was subtracted from test data before a final dissociation constant was obtained. Data were analyzed using a one-site binding model in Origin 7.1 software. […] Gibbs free energy, ΔG, was calculated from equation ΔG=ΔH−TΔS. All other parameters, Ka, n, ΔH, ΔS, were determined directly from the titration data.
For ITC experiments with 16F16 pre-treatment, 40 μM PDIa (after dialysis into ITC buffer) was treated with 200 μM 16F16 for 12-15 hours at 4° C. Next day the whole solution was loaded into the sample cell. LOC14 at 400 μM in ITC buffer was loaded into syringe and titrated into PDIa+16F16 loaded cell. For control experiments, ITC buffer with 200 μM 16F16 was used in the cell, while 400 μM LOC14 in ITC buffer was used in the syringe.
The binding mode of LOC14 to PDIa was next investigated using isothermal titration calorimetry (ITC). ITC measures the heat released or absorbed during a biomolecular interaction. It is a direct analytical method for determining the binding and thermodynamic parameters, such as reaction stoichiometry (n), binding constants (Ka and Kd), enthalpy (ΔH), entropy (ΔS), and free energy (ΔG) of an interaction.

For data set [4], the system named is PC12 mHTT^Q103 cells. Nature of the data set: Rescue of PC12 cells from mHTT^Q103 induced cell death (Alamar blue viability). Format: cell-based. The conditions noted are these: Table 5; for EC50: Rattus norvegicus, PC-12, read-out: Cell Viability Assay EC50. An excerpt:
PC12 mHTT^Q103 cells were a gift from Erik S. Schweitzer (UCLA School of Medicine, Los Angeles, Calif.). These cells are stably transfected with the first exon of human HTT gene containing the pathogenic 103 CAG/CAA repeat expansion, under the control of the ecdysteroid promoter (Aiken et al., 2004). The plasmid also contains a Bombyx mori ecdysone receptor gene fused at N-terminal with VP16 transactivation domain (Suhr et al., 1998; Vilaboa et al., 2011). Addition of the ecdysone analog, tebufenozide, to the cell culture medium is used to initiate the transcription of mutant HTT (Aiken et al., 2004).
PC12 mHTT^Q103 cells were cultured in DMEM containing 4.5 g/I glucose, 25 mM HEPES, sodium pyruvate, and no L-glutamine (Mediatech, cat. no. 15-018-CV), supplemented with 10% (v/v) Cosmic Calf serum, 2 mM L-glutamine, 100 units/mL of penicillin-streptomycin, and 0.5 mg/ml active geneticin. Cells were grown at 37° C., 9.5% CO2, and the medium was replaced with fresh medium every 2-3 days. To induce mHTT^Q103 expression for experiments, tebufenozide, a gift from Lynne Moore and Fred H. Gage (The Salk Institute for Biological Studies, La Jolla, Calif.), was added to the medium at 200 nM final concentration from 1 mM stock in 85% ethanol.
LOC mother plates with compounds at 4 mg/ml were thawed and spun down (1000 rpm, 20° C., 1 min) prior to use. Biomek FX (Beckman Coulter) robotic liquid dispenser was used to handle all liquid transferring and mixing. […] Two fold serial dilution was performed across five daughter plates by transferring 50 μl of compounds (at […]) from the D1 plate into 50 μl of PC12 medium in daughter plate D2, mixing, and then repeating the process for the remaining three plates. Daughter plate D1 with compounds at […], daughter plate D3 with compounds at 20 μl/ml and daughter plate D5 with compounds at 5 μl/ml were then used for the screen. Assay plates were set up by seeding tebufenozide-induced PC12 mHTT^Q103 cells into 384-well black, clear-bottom plates (Corning Inc. cat. no. 3712) at a density of 7,500 cells per well in 57 μl PC12 medium without geneticin. Three microliters of compound from the daughter plates (D1, D3, and D5) were added to the assay plates for a final compound concentration of 4 μl/ml, 1 μl/ml, and 0.25 μl/ml. Four wells containing uninduced PC12 mHTT^Q103 cells and four wells containing medium only, were also included on each plate as controls. The assay plates were incubated at 37° C., 9.5% CO2 for 48 hours. Twenty microliters of 40% Alamar blue (Life Technologies cat. no. DAL1100) solution in PC12 medium was added to each well (1:10 final dilution) and the plates were incubated for an additional 12-24 hours at 37° C., 9.5% CO2. Alamar blue fluorescence was read on a fluorescence plate reader (PerkinElmer Victor3) with 530 nm excitation filter and 590 nm emission filter. Each compound concentration was tested in triplicate.
The follow-up testing of primary screen hits was performed in a similar way. Fresh powder stocks of primary hits were re-ordered from vendors, dissolved in DMSO and tested in a two-fold serial dilution across 10 wells in both tebufenozide-induced and uninduced PC12 mHTT^Q103 cells. Dose-response curves were plotted as mean±SD and fit to either four-parameter sigmoidal (for uninduced cells) or bell-shaped (induced) function using Prism (GraphPad Software).
A cascade of two assays was used, involving both a phenotypic high-throughput screening (HTS) assay and an in vitro PDI reductase assay, to identify neuroprotective PDI-inhibiting compounds. […] Alamar blue was used as a fluorescent readout for viability after 48 hours of compound treatment and mHTT^Q103 induction. […] All the candidate hit compounds were re-tested in a two-fold dilution series.

A short description of data set [5]: physchem. The settings on record: organic solvent or mixture.
[6] abbreviates: Table 5, read-out: ITC Assay KD.

For the compound `O=c1c2ccccc2sn1CN1CCCCC1` [LC-1], in data set [1], the “Insulin Assay (either active or inactive)” value (shortened to “Insulin Assay”) was “Active”. The “Solubility in DMSO” value in data set [2] is listed as 100 mM in DMSO. The Kd in data set [3] (Table 4, read-out: ITC KD) is 107 nM; in data set [3] (setting [6]) it was 107 nM. The 50% effective concentration (EC50) in data set [4] worked out at 459 nM.
Turning to `CN1CCN(Cn2sc3ccccc3c2=O)CC1` [LC-2], in data set [1], the “Insulin Assay” value is recorded as “Active”. In addition, in data set [2], the “Solubility in DMSO” value is given as 100 mM in DMSO. Also, the Kd in data set [3] (Table 4, read-out: ITC KD) turned out to be 134 nM; in data set [3] (setting [6]), 91.7 nM. Also, the EC50 in data set [4] was 415 nM.
For `O=c1c2ccccc2sn1CN1CCSCC1` [LC-3], in that order: “Active”, 100 mM in DMSO, 91.7 nM, 91.7 nM and 463 nM.
The matching figures for `O=c1c2ccccc2sn1CN1CCC(CO)CC1` [LC-4]: “Active”, 100 mM in DMSO, 265 nM, 265 nM and 343 nM.
For `O=c1c2ccccc2sn1CN1CCC(O)CC1` [LC-7], in that order: “Active”, 100 mM in DMSO, 216 nM, 216 nM and 441 nM.
For the compound `CC(C)(C)OC(=O)N1CCN(Cn2sc3ccccc3c2=O)CC1` [LC-10], in data set [1], the “Insulin Assay” value is “Active”. In addition, the “Solubility in DMSO” value in data set [2] is listed as 100 mM in DMSO. In addition, the Kd in data set [3] (Table 4, read-out: ITC KD) amounted to 123 nM; in data set [3] (setting [6]), 123 nM. Moreover, the concentration giving a half-maximal response (EC50) in data set [4] is 581 nM.
`O=c1c2ccccc2sn1CN1CCN(c2ncccn2)CC1` [LC-12]: the “Insulin Assay” value in data set [1] was “Active”. In addition, the “Solubility in DMSO” value in data set [2] is on record as 100 mM in DMSO. In addition, the Kd in data set [3] (Table 4, read-out: ITC KD) stood at 140 nM; in data set [3] (setting [6]), 140 nM. Besides, in data set [4], the EC50 was determined as 416 nM.
In the case of `CC(=O)c1ccc(N2CCN(Cn3sc4ccccc4c3=O)CC2)cc1` [LC-13], the “Insulin Assay” value in data set [1] is on record as “Active”. Further, the “Solubility in DMSO” value in data set [2] is listed as 100 mM in DMSO. The equilibrium dissociation constant (Kd) worked out at 190 nM in data set [3] (Table 4, read-out: ITC KD) and 190 nM in data set [3] (setting [6]). Moreover, the EC50 in data set [4] was 514 nM.
Take `O=c1c2ccccc2sn1Cn1sc2ccccc2c1=O` [LC-17, 2,2′-methylenebis(benzo[d]isothiazol-3(2H)-one)]: the “Insulin Assay” value in data set [1] is recorded as “Active”. In addition, in data set [2], the “Solubility in DMSO” value was 100 mM in DMSO. Further, the Kd in data set [3] (setting [6]) came out at 160 nM. Also, the EC50 in data set [4] was 229 nM.
For the compound `O=C(Nc1ccccc1)c1ccccc1S` [LC-19], in data set [5], the solubility amounted to 50 mM (≈ 11500 µg/mL). Besides, the “Insulin Assay” value in data set [1] is “not active”. The “ITC Assay KD” value in data set [3] (Table 5) is recorded as “KD = N/A irreversible or not active”.
Consider `Cc1ccc(NC(=O)c2ccccc2S)c(Br)c1` [LC-34], for which the “Insulin Assay” value in data set [1] is listed as “not active”. Besides, the “ITC Assay KD” value in data set [3] (Table 5) is “KD = N/A irreversible or not active”. Moreover, the EC50 in data set [4] is 3770 nM.
For the compound `Cn1sccc1=O` [LC-35], in data set [1], the “Insulin Assay” value is on record as “Active”. In addition, the “ITC Assay KD” value in data set [3] (Table 5) was “KD = N/A irreversible or not active”. Also, in data set [4], the “Cell Viability Assay EC50” value is “Not Active”.
Turning to `Cc1ccc(-n2sc3ccccc3c2=O)c(Br)c1` [LC-36], the “Insulin Assay” value in data set [1] is reported as “not active”. Further, the dissociation constant Kd in data set [3] (setting [6]) came to 25.3 nM. Also, in data set [4], the 50% effective concentration (EC50) was found to be 1590 nM.
With `O=c1c2ccccc2sn1-c1ccc(Oc2ccccc2)cc1` [LC-37], the “Insulin Assay” value in data set [1] is given as “not active”. Moreover, the “ITC Assay KD” value in data set [3] (Table 5) was “KD = N/A irreversible or not active”. In data set [4], the 50% effective concentration (EC50) came out at 1680 nM.
For `O=c1[nH]sc2c(F)cccc12` [LC-40], in that order: “Active”, “KD = N/A irreversible or not active” and 9320 nM.
The matching figures for `O=C(C1CC1)N1CCN(Cn2sc3c(F)cccc3c2=O)CC1` [LC-43]: “Active”, “KD = N/A irreversible or not active” and 7410 nM.
As for `NC(=O)c1cccc(F)c1SSc1c(F)cccc1C(N)=O` [LC-44], the “Insulin Assay” value in data set [1] is “Active”. Also, in data set [3] (Table 5), the “ITC Assay KD” value is recorded as “KD = N/A irreversible or not active”. In addition, the half-maximal effective concentration (EC50) in data set [4] amounted to 7070 nM.
`Cc1cc(C)c2c(=O)ssc2n1` [LC-50]: the “Insulin Assay” value in data set [1] was “Active”. Moreover, the “Solubility in DMSO” value in data set [2] was 100 mM in DMSO. Also, the EC50 in data set [4] amounted to 5180 nM.
As for `Cc1nc2s[nH]c(=O)c2c(C)c1C` [LC-51], the solubility in data set [5] (DMSO) was determined as 10 mM (≈ 1940 µg/mL). In addition, in data set [1], the “Insulin Assay” value is reported as “Active”. Further, the EC50 in data set [4] was determined as 2200 nM.
Take `Cc1nc2sn(CN3CCN(C(=O)C4CC4)CC3)c(=O)c2c(C)c1C` [LC-52]: the solubility in data set [5] (DMSO) stood at 10 mM (≈ 3600 µg/mL). In addition, the “Insulin Assay” value in data set [1] is given as “Active”. Moreover, in data set [4], the EC50 was determined as 3570 nM.
On to `Cc1nnc2sn(C(C)N3CCC(C(=O)C4CC4)CC3)c(=O)c2c1C` (centres unmarked) [LC-59], for which, in data set [1], the “Insulin Assay” value is on record as “Active”. In addition, the “Solubility in DMSO” value in data set [2] is given as 100 mM in DMSO. In data set [4], the EC50 came to 10600 nM.
